Assay [1] deals with T1, SSTR4 (Homo sapiens (Human), UniProt P31391). Nature of the assay: Inhibition of forskolin stimulated cAMP in CHO-K1 cells overexpressing SSTR4. To be noted: for EC50: read-out: SSTR4 Activity pEC50 (converted). Format: cell-based. In short, it runs like this:
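Read-out is a HTRF LANCE Ultra cAMP competition using Eu-labelled streptavidin and biotin-cAMP, incubated 60 min at room temperature. It followed a 30 min room-temperature exposure of Kreb's Ringer-washed cells to compound plus forskolin. Potency is expressed as pEC50.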

The target of assay [2] is T1, SSTR4. As to the kind of experiment: SSTR4 I-125 somatostatin competition binding assay (membranes from CHO-K1 cells overexpressing SSTR4). To be noted: competition with I-125 labeled somatostatin; for IC50: read-out: SSTR4 Binding pIC50 (converted).
The target of assay [3] is SSTR1 (Homo sapiens (Human), UniProt P30872). Nature of the assay: SSTR1 I-125 somatostatin competition binding assay for selectivity versus SSTR4 (membranes from CHO-K1 cells overexpressing SSTR1).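 As to all read-outs here: Filter-based radioligand binding, bound label counted by scintillation after 60 min incubation at room temperature.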 To be noted: for SSTR1 Binding pIC50: competition with I-125 labeled somatostatin, CHO-K1 SSTR1 membranes.
SSTR1, sequence (P30872 whole entry): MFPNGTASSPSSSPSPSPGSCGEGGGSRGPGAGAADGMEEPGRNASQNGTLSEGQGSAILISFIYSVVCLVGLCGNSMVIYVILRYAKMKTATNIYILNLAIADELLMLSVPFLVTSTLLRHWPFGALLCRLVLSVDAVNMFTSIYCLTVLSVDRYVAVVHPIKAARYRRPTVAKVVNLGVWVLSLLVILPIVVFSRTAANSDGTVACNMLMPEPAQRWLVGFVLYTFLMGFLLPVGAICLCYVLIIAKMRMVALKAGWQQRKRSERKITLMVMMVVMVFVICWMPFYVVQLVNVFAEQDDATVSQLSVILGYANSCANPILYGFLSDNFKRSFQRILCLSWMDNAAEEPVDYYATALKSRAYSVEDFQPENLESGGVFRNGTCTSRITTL

Structures are written as SMILES.

Here are results for 24 compounds from patent publication US11045457B2, “Piperidinyl-3-(aryloxy)propanamides and propanoates” (priority 2018, dated 2021).

T1 sequence (P31391 whole entry): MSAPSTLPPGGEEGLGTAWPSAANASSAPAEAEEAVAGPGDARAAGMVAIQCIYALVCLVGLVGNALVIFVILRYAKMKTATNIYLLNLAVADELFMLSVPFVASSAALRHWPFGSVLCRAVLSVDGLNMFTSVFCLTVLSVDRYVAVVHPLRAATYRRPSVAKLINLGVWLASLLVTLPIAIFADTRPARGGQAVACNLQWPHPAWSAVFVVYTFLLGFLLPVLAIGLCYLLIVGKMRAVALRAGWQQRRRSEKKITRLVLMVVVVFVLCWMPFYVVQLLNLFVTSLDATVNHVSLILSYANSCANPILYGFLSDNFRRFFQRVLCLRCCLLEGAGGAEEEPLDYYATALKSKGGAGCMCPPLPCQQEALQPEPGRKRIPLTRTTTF

On to `Cc1ccc([C@@H]2CN(C)C[C@H]2NC(=O)C(C)(C)COc2ncccc2C(F)(F)F)cn1` (racemic) [Example 62, trans-2,2-dimethyl-N-(1-methyl-4-(6-methylpyridin-3-yl)pyrrolidin-3-yl)-3-((3-(trifluoromethyl)pyridin-2-yl)oxy)propanamide], for which, in assay [1], the EC50 is 15.8 nM. The figures for the IC50 in assay [2] and in assay [3] were 200 nM and 251 nM, respectively.

In the case of `C[C@@H]1C[C@H](NC(=O)C(F)(F)COc2ncccc2OC(F)(F)F)CCN1` [Example 212, 2,2-difluoro-N-((2R,4R)-2-methylpiperidin-4-yl)-3-((3-(trifluoromethoxy)pyridin-2-yl)oxy)propanamide], the “SSTR4 Activity pEC50” value in assay [1] was 8.6. The “SSTR4 Binding pIC50” value in assay [2] is 7.4. For the same compound, the “SSTR1 Binding pIC50” value in assay [3] worked out at 4.5.

On to `CC(C)[C@@H]1CN(C)C[C@H]1NC(=O)C(C)(C)COc1ncccc1OC(F)(F)F` (relative stereo) [Example 16, trans-N-(4-isopropyl-1-methylpyrrolidin-3-yl)-2,2-dimethyl-3-((3-(trifluoromethoxy)pyridin-2-yl)oxy)propanamide], for which, in assay [1], the “SSTR4 Activity pEC50” value was found to be 7.8. Further, the “SSTR4 Binding pIC50” value in assay [2] was determined as 7.2. Besides, the “SSTR1 Binding pIC50” value in assay [3] stood at 5.5.

As to `CN1CCC(NC(=O)C(C)(C)COc2ccccc2C(F)(F)F)CC1` [Example 64, 2,2-dimethyl-N-(1-methylpiperidin-4-yl)-3-(2-(trifluoromethyl)phenoxy)propanamide], in assay [1], the “SSTR4 Activity pEC50” value was determined as 7.9. Moreover, the “SSTR4 Binding pIC50” value in assay [2] is 7.0. The “SSTR1 Binding pIC50” value in assay [3] amounted to 5.1.

For `Cc1c([C@@H]2CN(C)C[C@H]2NC(=O)C(C)(C)COc2ncccc2C(F)(F)F)cnn1C` (relative stereo) [Example 28, trans-N-(4-(1,5-dimethyl-1H-pyrazol-4-yl)-1-methylpyrrolidin-3-yl)-2,2-dimethyl-3-((3-(trifluoromethyl)pyridin-2-yl)oxy)propanamide], the “SSTR4 Activity pEC50” value in assay [1] is 8.8. Further, the “SSTR4 Binding pIC50” value in assay [2] was 7.7. Moreover, the “SSTR1 Binding pIC50” value in assay [3] worked out at 6.8.

As for `CN1CCC(NC(=O)C(C)(C)COc2ncccc2C(F)(F)F)CC1` [Example 41, 2,2-dimethyl-N-(1-methylpiperidin-4-yl)-3-((3-(trifluoromethyl)pyridin-2-yl)oxy)propanamide], the “SSTR4 Activity pEC50” value in assay [1] turned out to be 7.4. Further, the “SSTR4 Binding pIC50” value in assay [2] worked out at 6.4. Besides, the “SSTR1 Binding pIC50” value in assay [3] stood at 4.2.

On to `CC[C@@H]1CN(C)CC[C@H]1NC(=O)C(C)(C)COc1ncc(C)cc1C` (racemic) [Example 128, trans-3-((3,5-dimethylpyridin-2-yl)oxy)-N-(3-ethyl-1-methylpiperidin-4-yl)-2,2-dimethylpropanamide], for which the EC50 in assay [1] is 15.8 nM. For the same compound, the IC50 in assay [2] is 63.1 nM; in assay [3], 3160 nM.

As for `CN1CC[C@@H](NC(=O)C(C)(C)COc2ccccc2Br)C1` [Example 69, (R)-3-(2-bromophenoxy)-2,2-dimethyl-N-(1-methylpyrrolidin-3-yl)propanamide], the “SSTR4 Activity pEC50” value in assay [1] was determined as 8.4. The “SSTR4 Binding pIC50” value in assay [2] came to 7.2. Further, the “SSTR1 Binding pIC50” value in assay [3] was determined as 5.2.

Consider `CN1CCC(NC(=O)C(C)(C)COc2ncccc2C(F)(F)F)C2(CC2)C1` (stereo not drawn) [Example 114, 2,2-dimethyl-N-(5-methyl-5-azaspiro[2.5]octan-8-yl)-3-((3-(trifluoromethyl)pyridin-2-yl)oxy)propanamide], for which the “SSTR4 Activity pEC50” value in assay [1] stood at 8.0. In assay [2], the “SSTR4 Binding pIC50” value amounted to 6.9. Further, the “SSTR1 Binding pIC50” value in assay [3] was determined as 4.6.

Consider `CC[C@@H]1CN(C)CC[C@H]1NC(=O)C(C)(C)COc1ncccc1C` (racemic) [Example 127, trans-N-(3-ethyl-1-methylpiperidin-4-yl)-2,2-dimethyl-3-((3-methylpyridin-2-yl)oxy)propanamide], for which the EC50 in assay [1] was 12.6 nM. Also, the values for the IC50 in assay [2] and in assay [3] were 79.4 nM and 7940 nM, respectively.

With `Cc1nn(C)cc1[C@@H]1CN(C)C[C@H]1NC(=O)C(C)(C)COc1ncccc1OC(F)(F)F` (relative stereo) [Example 29, trans-N-(4-(1,3-dimethyl-1H-pyrazol-4-yl)-1-methylpyrrolidin-3-yl)-2,2-dimethyl-3-((3-(trifluoromethoxy)pyridin-2-yl)oxy)propanamide], the “SSTR4 Activity pEC50” value in assay [1] came out at 8.4. Also, the “SSTR4 Binding pIC50” value in assay [2] was 7.4. Also, the “SSTR1 Binding pIC50” value in assay [3] turned out to be 6.4.

Consider `Cc1ccccc1[C@@H]1CNCC[C@H]1N(C)C(=O)C(C)(C)COc1ncccc1C(F)(F)F` (relative stereo) [Example 155, N,2,2-trimethyl-N-(trans-3-(o-tolyl)piperidin-4-yl)-3-((3-(trifluoromethyl)pyridin-2-yl)oxy)propanamide], for which the “SSTR4 Activity pEC50” value in assay [1] was found to be 8.0. In assay [2], the “SSTR4 Binding pIC50” value worked out at 7.2. The “SSTR1 Binding pIC50” value in assay [3] is recorded as 5.4.

With `C[C@@H]1C[C@H](NC(=O)C(F)(F)COc2ncccc2C2CC2)CCN1` [Example 211, 3-((3-cyclopropylpyridin-2-yl)oxy)-2,2-difluoro-N-((2R,4R)-2-methylpiperidin-4-yl)propanamide], the “SSTR4 Activity pEC50” value in assay [1] stood at 8.9. The “SSTR4 Binding pIC50” value in assay [2] was found to be 7.2. The “SSTR1 Binding pIC50” value in assay [3] is 4.8.

As to `C[C@H]1C[C@@H](NC(=O)C(C)(C)COc2ncccc2OC(F)(F)F)CCN1C` [Example 152, N-((2S,4S)-1,2-dimethylpiperidin-4-yl)-2,2-dimethyl-3-((3-(trifluoromethoxy)pyridin-2-yl)oxy)propanamide], the “SSTR4 Activity pEC50” value in assay [1] was 7.0. Further, the “SSTR4 Binding pIC50” value in assay [2] stood at 6.6. Also, the “SSTR1 Binding pIC50” value in assay [3] is reported as 4.6.

`CN1C[C@H](NC(=O)C(C)(C)COc2ncccc2C(F)(F)F)C2(CC2)C1` [Example 148, (R)-2,2-dimethyl-N-(5-methyl-5-azaspiro[2.4]heptan-7-yl)-3-((3-(trifluoromethyl)pyridin-2-yl)oxy)propanamide]: the “SSTR4 Activity pEC50” value in assay [1] is recorded as 8.1. Besides, the “SSTR4 Binding pIC50” value in assay [2] was found to be 7.4. In assay [3], the “SSTR1 Binding pIC50” value is recorded as 5.8.

On to `Cc1c([C@@H]2CN(C)C[C@H]2NC(=O)C(C)(C)COc2ncccc2OC(F)(F)F)cnn1C` (relative stereo) [Example 30, trans-N-(4-(1,5-dimethyl-1H-pyrazol-4-yl)-1-methylpyrrolidin-3-yl)-2,2-dimethyl-3-((3-(trifluoromethoxy)pyridin-2-yl)oxy)propanamide], for which the “SSTR4 Activity pEC50” value in assay [1] is 9.0. Moreover, the “SSTR4 Binding pIC50” value in assay [2] is given as 7.8. The “SSTR1 Binding pIC50” value in assay [3] is listed as 6.9.

With `Cc1nn(C)cc1[C@@H]1CN(C)C[C@H]1NC(=O)C(C)(C)COc1ncccc1C1CC1` (relative stereo) [Example 24, trans-3-((3-cyclopropylpyridin-2-yl)oxy)-N-(4-(1,3-dimethyl-1H-pyrazol-4-yl)-1-methylpyrrolidin-3-yl)-2,2-dimethylpropanamide], the “SSTR4 Activity pEC50” value in assay [1] is on record as 8.3. The “SSTR4 Binding pIC50” value in assay [2] was determined as 7.0. Further, the “SSTR1 Binding pIC50” value in assay [3] is recorded as 6.4.

Consider `CN1CC[C@H](NC(=O)C(C)(C)COc2ncccc2C(F)(F)F)[C@@H](F)C1` [Example 117, N-((3S,4S)-3-fluoro-1-methylpiperidin-4-yl)-2,2-dimethyl-3-((3-(trifluoromethyl)pyridin-2-yl)oxy)propanamide], for which the “SSTR4 Activity pEC50” value in assay [1] was determined as 7.6. The “SSTR4 Binding pIC50” value in assay [2] is reported as 6.7. Besides, in assay [3], the “SSTR1 Binding pIC50” value came to 4.5.

As to `C[C@H]1C[C@@H](NC(=O)C(C)(C)COc2ncccc2OC(F)(F)F)CCN1C` (relative stereo) [Example 136, cis-N-(1,2-dimethylpiperidin-4-yl)-2,2-dimethyl-3-((3-(trifluoromethoxy)pyridin-2-yl)oxy)propanamide], the “SSTR4 Activity pEC50” value in assay [1] is 8.1. In addition, in assay [2], the “SSTR4 Binding pIC50” value was 7.1. Also, the “SSTR1 Binding pIC50” value in assay [3] was found to be 4.8.

Regarding `CC(C)(COc1ccccc1Cl)C(=O)NC1CCNCC1` [Example 213, 3-(2-chlorophenoxy)-2,2-dimethyl-N-(piperidin-4-yl)propanamide], the “SSTR4 Activity pEC50” value in assay [1] was 8.7. In assay [2], the “SSTR4 Binding pIC50” value is listed as 7.6. In addition, the “SSTR1 Binding pIC50” value in assay [3] was 4.6.

In the case of `CN1CC[C@@H](NC(=O)C(C)(C)COc2ncccc2C(F)(F)F)[C@H](c2cnn(C(F)F)c2)C1` (racemic) [Example 125, trans-N-(3-(1-(difluoromethyl)-1H-pyrazol-4-yl)-1-methylpiperidin-4-yl)-2,2-dimethyl-3-((3-(trifluoromethyl)pyridin-2-yl)oxy)propanamide], the EC50 in assay [1] is 1.58 nM. Further, the IC50 in assay [2] was 50.1 nM; in assay [3], 794 nM.

For the compound `Cc1ccccc1OCC(C)(C)C(=O)NC1CCN(C)CC1` [Example 76, 2,2-dimethyl-N-(1-methylpiperidin-4-yl)-3-(o-tolyloxy)propanamide], in assay [1], the “SSTR4 Activity pEC50” value is on record as 7.7. For the same compound, the “SSTR4 Binding pIC50” value in assay [2] came to 6.7. Moreover, in assay [3], the “SSTR1 Binding pIC50” value came out at 4.7.

On to `Cc1cccnc1OCC(C)(C)C(=O)N[C@@H]1CN(C)C[C@H]1c1cnn(C)c1C` (relative stereo) [Example 26, trans-N-(4-(1,5-dimethyl-1H-pyrazol-4-yl)-1-methylpyrrolidin-3-yl)-2,2-dimethyl-3-((3-methylpyridin-2-yl)oxy)propanamide], for which, in assay [1], the “SSTR4 Activity pEC50” value came out at 8.6. For the same compound, the “SSTR4 Binding pIC50” value in assay [2] is 7.3. Also, the “SSTR1 Binding pIC50” value in assay [3] is on record as 6.1.

For the compound `C[C@@H]1CN(C)C[C@H]1NC(=O)C(C)(C)COc1ncccc1C1CC1` (racemic) [Example 181, 3-((3-cyclopropylpyridin-2-yl)oxy)-N-(trans-1,4-dimethylpyrrolidin-3-yl)-2,2-dimethylpropanamide], in assay [1], the EC50 is 15.8 nM. In addition, the results for the IC50 in assay [2] and in assay [3] were 398 nM and 3160 nM, respectively.
